Reference: US10259808B2 (Genentech, Inc., priority 2015, dated 2019)
Read-outs that look alike come from different tables or passages of the source.

Molecular target: T1, RORc ligand binding domain (Homo sapiens, UniProt P51449)
T1 sequence (P51449 269-508 limits assumed): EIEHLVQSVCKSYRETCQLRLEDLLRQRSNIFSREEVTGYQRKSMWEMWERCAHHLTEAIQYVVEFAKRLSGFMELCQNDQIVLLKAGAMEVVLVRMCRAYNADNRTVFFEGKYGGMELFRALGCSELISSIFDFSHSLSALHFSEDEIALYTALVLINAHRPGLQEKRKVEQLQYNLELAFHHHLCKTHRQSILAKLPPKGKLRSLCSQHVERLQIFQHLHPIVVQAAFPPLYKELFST
Assay: In vitro RORc ligand binding assay (25-[3H]hydroxycholesterol displacement)

| Structure (SMILES) | IC50 [nM] | IC50 (IC50 values for RORc) [nM] |
| --- | --- | --- |
| C[C@H]1CC[C@H](c2ccccc2)S(=O)(=O)N1Cc1cc(F)c([C@]2(c3n[nH]c(=O)o3)C[C@@H](O)C2)cc1F [Example 124, cis-5-[1-[2,5-difluoro-4-[[(3S,6R)-3-methyl-1,1-dioxo-6-phenyl-thiazinan-2-yl]methyl]phenyl]-3-hydroxy-cyclobutyl]-3H-1,3,4-oxadiazol-2-one] | 2.1 |  |
| C[C@H]1CC[C@H](c2ccccc2)S(=O)(=O)N1Cc1ccc(C2(OCc3nnc[nH]3)COC2)cc1F [Example 59, (3S,6R)-2-[[2-fluoro-4-[3-(4H-1,2,4-triazol-3-ylmethoxy)oxetan-3-yl]phenyl]methyl]-3-methyl-6-phenyl-thiazinane 1,1-dioxide] | 23.2 |  |
| C[C@H]1CC[C@H](c2ccccc2)S(=O)(=O)N1Cc1cc(F)c(C2(c3nnc(N)o3)CC(F)(F)C2)cc1F [Example 132, 5-[1-[2,5-difluoro-4-[[(3S,6R)-3-methyl-1,1-dioxo-6-phenyl-thiazinan-2-yl]methyl]phenyl]-3,3-difluoro-cyclobutyl]-1,3,4-oxadiazol-2-amine] | 12.8 |  |
| C[C@H]1CC[C@H](c2ccccc2)S(=O)(=O)N1Cc1cc(F)c(C2(NCc3cc(=O)[nH]o3)CCOCC2)cc1F [Example 82, 5-[[[4-[2,5-difluoro-4-[[(3S,6R)-3-methyl-1,1-dioxo-6-phenyl-thiazinan-2-yl]methyl]phenyl]tetrahydropyran-4-yl]amino]methyl]isoxazol-3-one] | 5.7 |  |
| C[C@H]1CC[C@H](c2ccccc2)S(=O)(=O)N1Cc1cc(F)c(C2(OCc3nnc[nH]3)CC3(COC3)C2)cc1F [Example 122, (3S,6R)-2-[[2,5-difluoro-4-[6-(4H-1,2,4-triazol-3-ylmethoxy)-2-oxaspiro[3.3]heptan-6-yl]phenyl]methyl]-3-methyl-6-phenyl-thiazinane 1,1-dioxide] | 2.7 |  |
| C[C@H]1CC[C@H](c2ccccc2)S(=O)(=O)N1Cc1cc(F)c([C@]2(c3nnc[nH]3)C[C@@H](O)C2)cc1F [Example 115, 3-[2,5-difluoro-4-[[(3S,6R)-3-methyl-1,1-dioxo-6-phenyl-thiazinan-2-yl]methyl]phenyl]-3-(4H-1,2,4-triazol-3-yl)cyclobutanol] | 7.8 |  |
| Cc1n[nH]cc1C(=O)NC1(c2cc(F)c(CN3[C@@H](C)CC[C@H](c4ccccc4)S3(=O)=O)cc2F)COC1 (stereo in doubt) [Example 130, N-[3-[2,5-difluoro-4-[[(3S,6R)-3-methyl-1,1-dioxo-6-phenyl-thiazinan-2-yl]methyl]phenyl]oxetan-3-yl]-3-methyl-1H-pyrazole-4-carboxamide] | 126 |  |
| C[C@H]1CC[C@H](c2ccccc2)S(=O)(=O)N1Cc1cc(F)c([C@]2(c3noc(=O)[nH]3)C[C@@](C)(O)C2)cc1F (racemic) [Example 175, 3-[1-[2,5-difluoro-4-[[rac-(3S,6R)-3-methyl-1,1-dioxo-6-phenyl-thiazinan-2-yl]methyl]phenyl]-3-hydroxy-3-methyl-cyclobutyl]-4H-1,2,4-oxadiazol-5-one] | 62 |  |
| CO[C@]1(C)C[C@@](c2n[nH]c(=O)o2)(c2cc(F)c(CN3[C@@H](C)CC[C@H](c4ccccc4)S3(=O)=O)cc2F)C1 [Example 157, cis 5-[1-[2,5-difluoro-4-[[(3S,6R)-3-methyl-1,1-dioxo-6-phenyl-thiazinan-2-yl]methyl]phenyl]-3-methoxy-3-methyl-cyclobutyl]-3H-1,3,4-oxadiazol-2-one] | 7.4 |  |
| COc1cc([C@]2(c3cc(F)c(CN4[C@@H](C)CC[C@H](c5ccccc5)S4(=O)=O)cc3F)C[C@@](C)(O)C2)on1 [Example 162, 3-[2,5-difluoro-4-[[(3S,6R)-3-methyl-1,1-dioxo-6-phenyl-thiazinan-2-yl]methyl]phenyl]-3-(3-methoxyisoxazol-5-yl)-1-methyl-cyclobutanol] | 3.6 |  |
| C[C@H]1CC[C@H](c2ccccc2)S(=O)(=O)N1Cc1cc(F)c(C2(Nc3cnccn3)COC2)cc1F [Example 105, N-[3-[2,5-difluoro-4-[[(3S,6R)-3-methyl-1,1-dioxo-6-phenyl-thiazinan-2-yl]methyl]phenyl]oxetan-3-yl]pyrazin-2-amine] | 2.2 |  |
| C[C@H]1CC[C@H](c2ccccc2)S(=O)(=O)N1Cc1cc(F)c(C2(c3c[nH]c(=O)o3)CC(O)C2)cc1F (mixture of isomers) [Example 163, 5-[1-[2,5-difluoro-4-[[rac-(3S,6R)-3-methyl-1,1-dioxo-6-phenyl-thiazinan-2-yl]methyl]phenyl]-3-hydroxy-cyclobutyl]-3H-oxazol-2-one] |  | 4.3 |

More lines, now with the values ahead:

| IC50 [nM] | IC50 (IC50 values for RORc) [nM] | Structure (SMILES) |
| --- | --- | --- |
| 63.8 |  | Cc1nocc1CNC(=O)C1(c2ccc(CN3[C@@H](C)CC[C@H](c4ccccc4)S3(=O)=O)c(F)c2)CCOCC1 [Example 2] |
| 28.2 |  | C[C@H]1CC[C@H](c2ccccc2)S(=O)(=O)N1Cc1cc(F)c(C2(c3nnc(CO)o3)CCOCC2)cc1F [Example 57, [5-[4-[2,5-difluoro-4-[[(3S,6R)-3-methyl-1,1-dioxo-6-phenyl-thiazinan-2-yl]methyl]phenyl]tetrahydropyran-4-yl]-1,3,4-oxadiazol-2-yl]methanol] |
| 101 |  | C[C@H]1CC[C@H](c2ccccc2)S(=O)(=O)N1Cc1ccc(C2(C(=O)NC3CCOC3)CCOCC2)cc1F (stereo partly drawn) [Example 8, 4-[3-fluoro-4-[[(3S,6R)-3-methyl-1,1-dioxo-6-phenyl-thiazinan-2-yl]methyl]phenyl]-N-tetrahydrofuran-3-yl-tetrahydropyran-4-carboxamide] |
| 161 |  | C[C@H]1CC[C@H](c2ccccc2)S(=O)(=O)N1Cc1ccc(C2(C(=O)NCC3CCOC3)CCOCC2)cc1F (some centres unmarked) [Example 11] |
| 10 |  | C[C@H]1CC[C@H](c2ccccc2)S(=O)(=O)N1Cc1cc(F)c(C2(C(=O)n3ccc(N)n3)CCOCC2)cc1F [Example 35, (3-aminopyrazol-1-yl)-[4-[2,5-difluoro-4-[[(3S,6R)-3-methyl-1,1-dioxo-6-phenyl-thiazinan-2-yl]methyl]phenyl]tetrahydropyran-4-yl]methanone] |
| 5.4 |  | C[C@H]1CC[C@H](c2ccccc2)S(=O)(=O)N1Cc1cc(F)c([C@]2(c3n[nH]c(=O)o3)C[C@@](O)(CC#N)C2)cc1F (racemic) [Example 176, 2-[3-[2,5-difluoro-4-[[rac-(3S,6R)-3-methyl-1,1-dioxo-6-phenyl-thiazinan-2-yl]methyl]phenyl]-1-hydroxy-3-(2-oxo-3H-1,3,4-oxadiazol-5-yl)cyclobutyl]acetonitrile] |
| 27.3 |  | C[C@H]1CC[C@H](c2ccccc2)S(=O)(=O)N1Cc1cc(F)c(C2(C(=O)n3cccn3)CCOCC2)cc1F [Example 39, [4-[2,5-difluoro-4-[[(3S,6R)-3-methyl-1,1-dioxo-6-phenyl-thiazinan-2-yl]methyl]phenyl]tetrahydropyran-4-yl]-pyrazol-1-yl-methanone] |
| 39.8 |  | C[C@H]1CC[C@H](c2ccccc2)S(=O)(=O)N1Cc1cc(F)c([C@]2(c3nn(C)c(=O)[nH]3)C[C@@](C)(O)C2)cc1F (racemic) [Example 168, 5-[1-[2,5-difluoro-4-[[rac-(3S,6R)-3-methyl-1,1-dioxo-6-phenyl-thiazinan-2-yl]methyl]phenyl]-3-hydroxy-3-methyl-cyclobutyl]-2-methyl-4H-1,2,4-triazol-3-one] |
| 245 |  | C[C@H]1CC[C@H](c2ccccc2)S(=O)(=O)N1Cc1ccc(C2(c3noc(=O)[nH]3)CCOCC2)cc1F [Example 30, 3-[4-[3-fluoro-4-[[(3S,6R)-3-methyl-1,1-dioxo-6-phenyl-thiazinan-2-yl]methyl]phenyl]tetrahydropyran-4-yl]-4H-1,2,4-oxadiazol-5-one] |
| 4.8 |  | C[C@H]1CC[C@H](c2ccccc2)S(=O)(=O)N1Cc1cc(F)c(C2(NC(=O)c3cocn3)CCOCC2)cc1F [Example 80, N-[4-[2,5-difluoro-4-[[(3S,6R)-3-methyl-1,1-dioxo-6-phenyl-thiazinan-2-yl]methyl]phenyl]tetrahydropyran-4-yl]oxazole-4-carboxamide] |
| 4.4 |  | C[C@H]1CC[C@H](c2ccccc2)S(=O)(=O)N1Cc1cc(F)c([C@]2(c3nc(CO)n[nH]3)C[C@](C)(O)C2)cc1F (racemic) [Example 186, 3-[2,5-difluoro-4-[[rac-(3S,6R)-3-methyl-1,1-dioxo-6-phenyl-thiazinan-2-yl]methyl]phenyl]-3-[3-(hydroxymethyl)-1H-1,2,4-triazol-5-yl]-1-methyl-cyclobutanol] |
| 103 |  | C[C@H]1CC[C@H](c2ccccc2)S(=O)(=O)N1Cc1cc(F)c(C2(c3ncn(CC(N)=O)n3)CCOCC2)cc1F [Example 53, 2-[3-[4-[2,5-difluoro-4-[[(3S,6R)-3-methyl-1,1-dioxo-6-phenyl-thiazinan-2-yl]methyl]phenyl]tetrahydropyran-4-yl]-1,2,4-triazol-1-yl]acetamide] |
| 19.6 |  | C[C@H]1CC[C@H](c2ccccc2)S(=O)(=O)N1Cc1ccc(C2(C(=O)n3nccc3N)CCOCC2)cc1F |
| 13.6 |  | Cc1[nH]c(=O)oc1[C@]1(c2cc(F)c(CN3[C@@H](C)CC[C@H](c4ccccc4)S3(=O)=O)cc2F)C[C@@](C)(O)C1 [Example 160, 5-[1-[2,5-difluoro-4-[[(3S,6R)-3-methyl-1,1-dioxo-6-phenyl-thiazinan-2-yl]methyl]phenyl]-3-hydroxy-3-methyl-cyclobutyl]-4-methyl-3H-oxazol-2-one] |
| 4.2 |  | CCOC(=O)c1nnc(C2(c3cc(F)c(CN4[C@@H](C)CC[C@H](c5ccccc5)S4(=O)=O)cc3F)CCOCC2)o1 [Example 60, ethyl 5-[4-[2,5-difluoro-4-[[(3S,6R)-3-methyl-1,1-dioxo-6-phenyl-thiazinan-2-yl]methyl]phenyl]tetrahydropyran-4-yl]-1,3,4-oxadiazole-2-carboxylate] |
| 63.2 |  | CCn1nccc1NC(=O)C1(c2ccc(CN3[C@@H](C)CC[C@H](c4ccccc4)S3(=O)=O)c(F)c2)CCOCC1 [Example 13] |
| 75.7 |  | C[C@H]1CC[C@H](c2ccccc2)S(=O)(=O)N1Cc1ccc(C2(C(=O)NCc3ccno3)CCOCC2)cc1F [Example 4] |
